{"source": "patent US20210322333A1", "about": "“Lignin-PLGA Biopolymers and Nanoparticles, and their Synthesis and Use” (Board of Supervisors of Louisiana State University and …, priority 2018, published 2021)", "key": {"[1]": {"tested_on": "MDA-MB-231 breast cancer cells", "test": "Cell survival assay (crystal violet, 5 days)", "type": "cell-based", "method": "Breast cancer cell line MDA-MB-231 was generously donated by the Burrow Lab at Tulane University School of Medicine. Cells were maintained in 5% CO2 at 37° C. and cultured in Dulbecco's modified Eagle's medium (DMEM) supplemented with 10% Hyclone Cosmic Calf Serum (HyClone Laboratories, Utah), 50 ng/mL insulin (Sigma-Aldrich, St. Louis, Mo., USA), and 1% MEMAA, NEAA, sodium pyruvate, and antibiotic-antimycotic (Gibco, Dublin, Ireland).\nMDA-MB-231 breast cancer cells were seeded at a density of 5000 cells per well in cell culture medium on 96-well Corning Costar tissue culture plastic plates (Corning Life Sciences, Corning, N.Y., USA). After 24 hours in culture, cells were treated with vehicle control (DMSO), PLGA NPs (negative control), AL-PLGA NPs (negative control), free GDC-0623 (positive control), PLGA-GDC NPs, or AL-PLGA-GDC NPs. […] Following treatment, cells were cultured for 5 days and then stained with crystal violet. Crystal violet was eluted with 33% acetic acid, and absorbance at 570 nm was measured with a BioTek Cytation 3 plate reader (BioTek Instruments Inc, Winooski, Vt., USA). The experiment was carried out with both internal replicates (n=3) and biological replicates (n=3)."}, "[2]": {"settings": "cited from earlier work"}}, "note": "Marks after values point to notes of the source that are not given here."}
{"compound": "O=C(NOCCO)c1ccc2cncn2c1Nc1ccc(I)cc1F", "note": "[GDC-0623]", "values": [{"measurement": "Mean Relative Cell Number (%)", "setting": "[1]; 1 nM, relative to DMSO, n = 3", "value": 96.1, "unit": "%"}, {"measurement": "Mean Relative Cell Number (%)", "setting": "[1]; 10 nM GDC-0623 free or NP-entrapped, relative to DMSO (Table 6)", "value": "87.8* %"}, {"measurement": "Mean Relative Cell Number (%)", "setting": "[1]; 10 nM, relative to DMSO, n = 3", "value": 83.9, "unit": "%"}, {"measurement": "Mean Relative Cell Number (%)", "setting": "[1]; 100 nM GDC-0623, normalized versus free drug (Table 7, first group)", "value": 100.0, "unit": "%"}, {"measurement": "Mean Relative Cell Number (%)", "setting": "[1]; 100 nM GDC-0623 free or NP-entrapped, relative to DMSO (Table 6)", "value": "51.4** %"}, {"measurement": "reduction in cell numbers", "setting": "[1]; 100 nM, compared to DMSO (vehicle)", "value": 50, "unit": "%"}, {"measurement": "Mean Relative Cell Number (%)", "setting": "[1]; 100 nM, relative to DMSO, n = 3", "value": "46.8* %"}, {"measurement": "Mean Relative Cell Number (%)", "setting": "[1]; 1 μM, relative to DMSO, n = 3", "value": "31.3** %"}, {"measurement": "Mean Relative Cell Number (%)", "setting": "[1]; 10 μM, relative to DMSO, n = 3", "value": "30.9** %"}, {"measurement": "Mean Relative Cell Number (%)", "setting": "[1]; printed 100 nM GDC-0623, normalized versus free drug (Table 7, second group r12-r14)", "value": 100.0, "unit": "%"}, {"measurement": "pharmacokinetic characteristics", "setting": "[2]; Phase I trials", "value": "dose-proportional and time-dependent"}, {"measurement": "tolerability", "setting": "[2]; Phase I trials", "value": "well-tolerated"}, {"measurement": "accumulation at steady-state", "setting": "[2]; daily oral dosing", "value": "no significant accumulation"}]}
